One assay concerns the target Kv1.3 (Homo sapiens (Human), UniProt P22001). Put plainly: Patch-clamp assay for inhibitory activity on Kv1.3 (whole cell patch-clamp recording). It counts as cell-based. Conditions: n≥2 per concentration. The procedure:
Patch-Clamp Assay for Inhibitory Activity on Kv1.3
For a description of a Kv1.3 patch-clamp assay, see Grissmer et al., Mol. Pharmacol. 1994, 45, 1227; whole cell patch-clamp recording was performed with n≥2 individual experiments at each compound concentration using different cells. Three or more different concentrations were determined per dose response curve.
Background: The patch-clamp technique gives a direct electrical read-out from membranes.

The subject of assay [1] is Peripheral blood mononuclear cells (PBMC). As to the kind of experiment: T cell proliferation assay (anti-CD3 activated PBMC, BrdU based cell proliferation ELISA). The settings on record: human PBMC, TRAM-34 (5 μM), 50 ng/ml anti-CD3, 48 hours; read-out: IC50(BrdU incorporation). The source says: T cell proliferation assay (in analogy to Pegoraro et al., Bioorg. Med. Chem. Lett. 2009, 19, 2299)
Peripheral blood mononuclear cells (PBMC) from healthy human donors were isolated by centrifugation over a density gradient in an aqueous solution, comprising a high molecular weight polysaccharide and sodium diatrizionate, and having a density of 1.077±0.001 (Ficoll-Hypaque by Sigma-Aldrich, Germany; according to manufacturer's instructions). Purified PBMC were washed twice with PBS and resuspended in RPMI1640 culture medium (Gibco—Life Technologies) supplemented with 10% heat inactivated fetal calf serum, 1.5 mM L-glutamine, 100 U penicillin/ml, and 100 […] (all from PAA—GE Healthcare). For stimulation, PBMC were seeded at 1×10^5 cells/well, incubated with TRAM-34 (5 μM) and the test compounds for 4 h and activated with 50 ng/ml anti-CD3 (from eBioscience). After 48 hours proliferation was measured using a BrdU based cell proliferation ELISA according to the manual.
A general note: In an ELISA, binding on a coated surface is turned into a signal by an enzyme label.

The subject of another assay is female Dark Agouti rats. Put plainly: Pristane-induced Arthritis (PIA) model. Format: in vivo, rat. Conditions: for Arthritic Index (AI): maximum AI=16, controls AI around 14; for amelioration of arthritis: Example 53 60 mg/kg p.o. sid, Example 34 45 mg/kg p.o. bid. The method, then: Pristane-induced Arthritis (PIA) Model:
Arthritis was induced in female Dark Agouti rats by intradermal injection of 150 μL/rat pristane into the base of the tail on DAY0, according to Vingsbo et al., Am. J. Pathol. 1996, 149, 1675. Compound treatment was started on DAY16 and continued until DAY30, dosing Example 53 at 60 mg/kg, p.o., sid, and Example 34 at 45 mg/kg, p.o., bid, each in a lipophilic formulation. As a positive control, methotrexate (MTX) was dosed i.p., sid, with 0.05 mg/kg, also starting DAY16. Arthritis development was monitored daily by a macroscopic scoring system for the four limbs ranging from 0 to 4 (0=no visible effects of arthritis; 1=edema and/or erythema of one digit; 2=edema and/or erythema of two joints; 3=edema and/or erythema of more than two joints; 4=severe arthritis of the entire paw and digits, associated with ankylosis and deformity of the paw.), resulting in an Arthritic Index (AI) reflecting the sum of scores of all 4 limbs per rat (maximum AI=16).

Kv1.3, sequence (P22001 whole entry): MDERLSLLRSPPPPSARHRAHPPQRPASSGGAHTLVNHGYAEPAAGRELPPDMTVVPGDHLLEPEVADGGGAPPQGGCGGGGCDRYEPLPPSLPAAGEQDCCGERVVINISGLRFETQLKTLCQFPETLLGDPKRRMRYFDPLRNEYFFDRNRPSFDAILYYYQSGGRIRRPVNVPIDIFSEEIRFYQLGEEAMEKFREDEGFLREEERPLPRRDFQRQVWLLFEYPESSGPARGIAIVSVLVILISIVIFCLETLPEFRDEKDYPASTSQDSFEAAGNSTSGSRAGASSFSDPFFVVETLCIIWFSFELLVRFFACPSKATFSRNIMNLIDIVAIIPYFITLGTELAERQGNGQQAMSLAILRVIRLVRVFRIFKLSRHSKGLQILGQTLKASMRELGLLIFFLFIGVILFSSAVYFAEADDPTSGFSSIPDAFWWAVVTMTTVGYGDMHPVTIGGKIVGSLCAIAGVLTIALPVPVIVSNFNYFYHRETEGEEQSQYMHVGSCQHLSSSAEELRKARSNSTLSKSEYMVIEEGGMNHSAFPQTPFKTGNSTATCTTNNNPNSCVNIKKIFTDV

Consider `COc1ccccc1-c1c(C)c(=O)oc2c(C)c3occ(C)c3cc12` [Example 7, 5-(2-methoxyphenyl)-3,6,9-trimethyl-7H-furo[3,2-g]chromen-7-one], for which the IC50 against Kv1.3 was at most 500 nM; in assay [1], 1300 to 3000 nM.
Taken in the same sequence, the figures for `Cc1c(-c2cccnc2)c2cc3c(C)coc3c(C)c2[nH]c1=O` [Example 54, 3,6,9-trimethyl-5-(pyridin-3-yl)furo[3,2-g]quinolin-7(8H)-one] were at most 500 nM and 3100 to 15000 nM.
Taken in the same sequence, the figures for `Cc1c(-c2ccccc2F)c2cc3c(C)coc3c(C)c2oc1=O` [Example 5, 5-(2-fluorophenyl)-3,6,9-trimethyl-7H-furo[3,2-g]chromen-7-one] were at most 500 nM and 1300 to 3000 nM.
Taken in the same sequence, the figures for `Cc1c(-c2ccccc2)c2cc3c(C)coc3c(C)c2oc1=O` [Example 9, 3,6,9-trimethyl-5-phenyl-7H-furo[3,2-g]chromen-7-one] were at most 500 nM and at most 1200 nM.
In the case of `COc1ccccc1-c1cc(=O)oc2c(C)c3occ(C)c3cc12` [Example 1, 5-(2-methoxyphenyl)-3,9-dimethyl-7H-furo[3,2-g]chromen-7-one], the IC50 was at most 500 nM against Kv1.3 and 3100 to 15000 nM in assay [1].
`CN(Cc1cnc2nc(N)nc(N)c2n1)c1ccc(C(=O)N[C@@H](CCC(=O)O)C(=O)O)cc1` [MTX, methotrexate, reference compound]: the “Arthritic Index (AI)” value in the assay on female Dark Agouti rats (0.05 mg/kg, i.p., sid, from DAY16) was around 8.7.
In the case of `Cc1c(-c2ccccc2)c2cc3c(C)coc3c(C)c2[nH]c1=O` [Example 31, 3,6,9-trimethyl-5-phenylfuro[3,2-g]quinolin-7(8H)-one], the IC50 against Kv1.3 is at most 500 nM; in assay [1], at most 1200 nM.
As to `Cc1c(-c2ccccc2)c2cc3c(C)coc3c(C)c2n(C)c1=O` [Example 34, 3,6,8,9-tetramethyl-5-phenylfuro[3,2-g]quinolin-7(8H)-one], the IC50 against Kv1.3 is at most 500 nM; in assay [1], 1300 to 3000 nM. In the assay on female Dark Agouti rats (45 mg/kg, p.o., bid, DAY16 to DAY30), the “Arthritic Index (AI)” value is listed as “around 9.1”. The amelioration of arthritis entry in the assay on female Dark Agouti rats (DAY16 to DAY30) is listed as “significant amelioration of arthritis”.
For the molecule `Cc1c(-c2ccccc2)c2cc3c(C)coc3nc2oc1=O` [Example 25, 3,6-dimethyl-5-phenyl-7H-furo[2,3-b]pyrano[3,2-e]pyridin-7-one], the IC50 against Kv1.3 is at most 500 nM; in assay [1] it was 1300 to 3000 nM.
`Cc1c(-c2ccccc2)c2cc3c(C)coc3nc2n(C)c1=O` [Example 49, 3,6,8-trimethyl-5-phenylfuro[2,3-b][1,8]naphthyridin-7(8H)-one]: the IC50 against Kv1.3 is at most 500 nM; in assay [1] it was 3100 to 15000 nM.
The corresponding values for `Cc1c(-c2cccnc2)c2cc3c(C)coc3c(C)c2n(C)c1=O` [Example 55, 3,6,8,9-tetramethyl-5-(pyridin-3-yl)furo[3,2-g]quinolin-7(8H)-one] are 501 to 1500 nM and 3100 to 15000 nM.
The corresponding values for `Cc1coc2c(C)c3[nH]c(=O)c(Br)c(-c4ccccc4)c3cc12` [Example 26, 6-bromo-3,9-dimethyl-5-phenylfuro[3,2-g]quinolin-7(8H)-one] are at most 500 nM and at most 1200 nM.
With `Cc1c(-c2cccnc2)c2cc3c(C)coc3c(C)c2oc1=O` [Example 53, 3,6,9-trimethyl-5-(pyridin-3-yl)-7H-furo[3,2-g]chromen-7-one], the IC50 against Kv1.3 is at most 500 nM; in assay [1], 1300 to 3000 nM. Besides, the “Arthritic Index (AI)” value with female Dark Agouti rats (60 mg/kg, p.o., sid, DAY16 to DAY30) is “around 10.4”. Further, in the assay on female Dark Agouti rats (DAY16 to DAY30), the amelioration of arthritis entry is “significant amelioration of arthritis”.
As to `Cc1c(-c2ccccc2Cl)c2cc3c(C)coc3c(C)c2[nH]c1=O` [Example 40, 5-(2-chlorophenyl)-3,6,9-trimethylfuro[3,2-g]quinolin-7(8H)-one], the IC50 against Kv1.3 is at most 500 nM; in assay [1], at most 1200 nM.
The corresponding values for `CCOc1ccccc1-c1c(C)c(=O)oc2c(C)c3occ(C)c3cc12` [Example 10, 5-(2-ethoxyphenyl)-3,6,9-trimethyl-7H-furo[3,2-g]chromen-7-one] are at most 500 nM and at most 1200 nM.
The corresponding values for `Cc1c(-c2ccccc2)c2cc3c(C)csc3c(C)c2oc1=O` [Example 43, 3,6,9-trimethyl-4-phenyl-2H-thieno[3,2-g]chromen-2-one] are at most 500 nM and 1300 to 3000 nM.
The corresponding values for `Cc1c2oc(=O)cc(-c3ccccc3)c2cc2c(C3CC3)coc12` [Example 41, 3-cyclopropyl-9-methyl-5-phenyl-7H-furo[3,2-g]chromen-7-one] are at most 500 nM and 1300 to 3000 nM.
As to `Cc1c(-c2ccccc2Cl)c2cc3c(C)coc3c(C)c2oc1=O` [Example 11, 5-(2-chlorophenyl)-3,6,9-trimethyl-7H-furo[3,2-g]chromen-7-one], the IC50 is at most 500 nM at Kv1.3 and 1300 to 3000 nM in assay [1].
The corresponding values for `Cc1c(-c2ccccc2F)c2cc3c(C)coc3c(C)c2[nH]c1=O` [Example 30, 5-(2-fluorophenyl)-3,6,9-trimethylfuro[3,2-g]quinolin-7(8H)-one] are at most 500 nM and 1300 to 3000 nM.
With `Cc1csc2c(C)c3oc(=O)cc(-c4ccccc4)c3cc12` [Example 37, 6,9-dimethyl-4-phenyl-2H-thieno[3,2-g]chromen-2-one], the IC50 was in the range of 501 to 1500 nM at Kv1.3 and 3100 to 15000 nM in assay [1].

The values are drawn from patent US10399991B2, “Kv1.3 inhibitors and their medical applications” (4SC AG, priority 2015, dated 2019).
